Source: patent US20130129675A1, “INTERFERON THERAPIES IN COMBINATION WITH BLOCKADE OF STAT3 ACTIVATION” (BOARD OF REGENTS, THE UNIVERSITY OF TEXAS SYSTEM, priority 2009, published 2013)

Assays:
[1] = test system: intracerebral B16 melanoma; assay: Survival of mice with established intracerebral B16 melanoma; format: in vivo, C57BL/6J mice; details: for median overall survival: WP1193 30 mg/kg oral gavage (sub-therapeutic) from day 3, IFN-α plasmid i.v. day 5, control 17 days; for increase in median survival: versus control (17 days)
Description: For the in vivo experiments, we used 4- to 6-week-old female C57BL/6J mice maintained in the M. D. Anderson Cancer Center Isolation Facility in accordance with Laboratory Animal Resources Commission standards and conducted according to an Institutional Animal Care and Use Committee-approved protocol, 08-06-11831. A mouse was euthanized when it became unable to reach food or water. To induce intracerebral tumors in C57BL/6J mice, B16 cells were collected in logarithmic growth phase, washed twice with PBS, mixed with an equal volume of 10% methyl cellulose and RPMI 1640 medium and loaded into a 250-μl syringe (Hamilton, Reno, Nev.) with an attached 25-gauge needle. The needle was positioned 2 mm to the right of bregma and 4 mm below the surface of the skull at the coronal suture using a stereotactic frame (Kopf Instruments, Tujunga, Calif.). The intracerebral tumorigenic dose for the B16 cells was 5×10^2 in a total volume of 5 μl.
pORF.IFN-α (IFN-α) plasmid was obtained from Invivogen (29). Hydrodynamic gene transfer (HGT) consisted of a single intravenous (i.v.) injection of 3 μg endotoxin-free pORF plasmid encoding murine IFN-α or pORF control plasmid DNA (InvivoGen, San Diego, Calif.) in 2 ml of saline as previously described. Liu F, Song Y, Liu D, Hydrodynamics-Based Transfection In Animals By Systemic Administration Of Plasmid DNA, Gene Therapy 1999; 6:1258-66. […] Sikora A G, Jaffarzad N, Hailemichael Y, Gelbard A, Stonier S W, Schluns K S, Frasca L, Lou Y, Liu C, Andersson H A, Hwu P, Overwijk W W, IFN-A Enhances Peptide Vaccine-Induced CD8+ T Cell Numbers, Effector Function, And Antitumor Activity, J Immunol 2009, 182:7398-407. The STAT3 inhibitor, WP1193, was synthesized and supplied by Dr. Priebe (M. D. Anderson). WP1193, a third-generation analogue inhibitor of the p-STAT3 pathway, was dissolved in a mixture of 20 parts dimethylsulfoxide (DMSO) to 80 parts polyethylene glycol (PEG) 300 (Sigma-Aldrich, St Louis, Mo.) at titered concentrations and delivered in a final volume of 100 μL. Prior to use, WP1193 was stored as a lyophilized powder at 4° C.
Treatment for the established intracerebral tumors was with WP1193 (starting on day 3) and/or IFN-α (starting on day 5) after B16 tumor cell challenge. Mice were injected intravenously (i.v.) with 2 ml (3 μg) of IFN-α plasmid in saline once. Mice were treated with a sub-therapeutic dose of 30 mg/kg of WP1193 by oral gavage (o.g.) in a vehicle of DMSO/PEG300 (20 parts/80 parts) on […], on a […]. schedule (5 days on, 2 days off). When mice were treated in the therapeutic range of 40 mg/kg, >80% of animals survived long-term (more than 70 days) and synergy with IFN-α could not be assessed. Ten mice per experimental group were used, including treatment with the DMSO/PEG300 vehicle alone in the control group.
Kaplan-Meier product-limit survival probability estimates of overall survival were calculated and log-rank tests were performed to compare overall survival between treatment groups and the control arm. Kaplan E L, Meier P., Nonparametric Estimation From Incomplete Observations, J Am Stat Assoc 1958; 53:457-81; Mantel N., Evaluation Of Survival Data And Two New Rank Order Statistics Arising In Its Consideration, Cancer Chemother Rep 1966; 50:163-70 Ex-vivo or in vitro data are presented as means±standard errors (SEs) of three repeated experiments. Student's t test was performed. A P value below 0.05 was considered statistically significant. […]

[2] = test system: B16 target cells; assay: Ex vivo splenocyte cytotoxicity assay; format: cell-based, mice; details: 48 h
Description: Spleens from 4- to 6-week-old female mice in the above treatment schema were harvested and disassociated into a single cell suspension. After erythrocytes were lysed with 1×RBC lysis buffer (eBioscience), splenocytes were washed once with RPMI 1640 medium and were ready as effector cells for the standard cytotoxicity assay. Wang L, Yi T, Kortylewski M, Pardoll D M, Zeng D, Yu H, IL-17 Can Promote Tumor Growth Through An IL-6-Stat3 Signaling Pathway, J Exp Med 2009; 206:1457-64. For target cells, B16 cells in RPMI 1640 medium were cultured for 3 days, trypsinized, pelleted, and resuspended in FACS buffer at room temperature to achieve a concentration of 10^6 cells/ml. Carboxy-fluorescein diacetate succinimidyl ester (CFSE) stock solution (CellTrace CFSE Cell Proliferation Kit; Invitrogen, Eugene, Oreg.) was added to achieve a final concentration of 4 μM. The mixture was incubated at 37° C. for 10 minutes, and then the staining reaction was quenched by the addition of five volumes of ice-cold PBS for 5 minutes. The B16 cells were washed three times in RPMI 1640 medium and plated for the cytotoxicity assay. The ratios of splenocyte effector cells to B16 target cells were 30:1 and 100:1. After 48 h of incubation, the CFSE-labeled B16 melanoma cells were removed from the plates with trypsin-EDTA (0.05%) and analyzed by FACS. The B16 cells were stained with propidium iodide (PI; BD Biosciences) to distinguish viable cells from nonviable cells. B16 cells that were stained with CFSE and PI were considered nonviable. Flow cytometric acquisition of the B16 target cells was performed with a FACSCalibur flow cytometer (BD Biosciences), and data analysis was performed using FlowJo software (TreeStar, Ashland, Oreg.).
To ascertain the underlying in vivo immunological mechanism that is responsible for the therapeutic efficacy, we examined splenocytes cytotoxic responses directed against B16 melanoma cells. Splenocytes from control mice and mice treated with WP1193, IFN-α, or IFN-α+WP1193 were isolated and co-cultured with CFSE-labeled B16 target cells for 48 hours to assess splenocyte cytotoxicity against B16 cells. […] Furthermore, in mice treated with both IFN-α and WP1193, there was additive enhanced cytotoxic clearance of the B16 target cells compared with mice that were treated with either WP1193 or IFN-α alone (P<0.01;).

[3] = 30:1 ratio of splenocytes to B16 Tumor Cells, control 25.2
[4] = 100:1 ratio of splenocytes to B16 Tumor Cells, control 38.1

Row | Molecule | median overall survival [1] [days] | animals surviving long-term (more than 70 days) ([1]; therapeutic range of 40 mg/kg) [%] | increase in median survival [1] [%] | % of B16 Killimg [2, 3] [%] | % of B16 Killimg [2, 4] [%]
1 | N#C/C(=C\c1cccc(Br)n1)C(=O)N[C@H](c1ccccc1)C1CC1 [WP1193, (S,E)-3-(6-bromopyridin-2-yl)-2-cyano-N-(cyclopropyl(phenyl)methyl)acrylamide] | 18.5 | > 80 | 9 | 29.8 | 42.0
2 | IFN-α | 27.5 | – | 62 | 40.1 | 51.6
